Assay results taken from ChEMBL document CHEMBL1201862, “PubChem BioAssay data set” (2004).
Values belong to the compound of their own block, whether it stands above or below them. Active and inactive are the calls of the source.

Experiments:
[1] = molecular target: T1, Polyadenylate-binding protein 1 (Homo sapiens, UniProt P11940); test: MLLE domain peptide-binding blockers, IC50 – biochemical, fluorescence polarization, FITC-PAM2 peptide, dose response (AID 602259); assay type: functional; conditions: read-out: IC50_Mean
Protein skinhead-1 = molecular target: T2, Protein skinhead-1 (Caenorhabditis elegans, UniProt P34707); assay type: functional
T2 sequence (P34707 whole entry): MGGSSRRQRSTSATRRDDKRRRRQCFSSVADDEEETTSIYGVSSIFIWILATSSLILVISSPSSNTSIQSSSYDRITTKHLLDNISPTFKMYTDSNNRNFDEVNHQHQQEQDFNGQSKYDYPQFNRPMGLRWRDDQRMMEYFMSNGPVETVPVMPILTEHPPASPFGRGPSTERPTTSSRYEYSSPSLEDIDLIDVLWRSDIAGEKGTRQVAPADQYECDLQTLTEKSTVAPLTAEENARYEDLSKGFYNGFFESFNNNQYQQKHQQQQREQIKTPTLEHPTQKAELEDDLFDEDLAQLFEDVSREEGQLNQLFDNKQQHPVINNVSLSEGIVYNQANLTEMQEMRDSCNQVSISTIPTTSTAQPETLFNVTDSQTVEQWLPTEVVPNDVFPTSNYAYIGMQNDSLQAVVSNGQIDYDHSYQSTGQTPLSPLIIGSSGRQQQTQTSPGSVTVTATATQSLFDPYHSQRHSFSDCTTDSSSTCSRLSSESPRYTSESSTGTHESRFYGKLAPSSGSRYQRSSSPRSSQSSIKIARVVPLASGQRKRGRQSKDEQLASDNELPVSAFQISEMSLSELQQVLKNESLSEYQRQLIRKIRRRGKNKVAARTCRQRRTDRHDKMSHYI

[2] = molecular target: T1, Polyadenylate-binding protein 1; test: MLLE binding blockers, Cy5 peptide tracer – biochemical, fluorescence polarization, Cy5-PAM2 peptide, secondary, miRNA deadenylation inhibitor project, dose response (AID 602260); assay type: functional; conditions: read-out: IC50_Mean
[3] = molecular target: T3, Rac GTPase-activating protein 1 (Homo sapiens, UniProt Q9H0H5); test: blockers of MgcRacGAP-driven Rac1 GTP hydrolysis – biochemical, ADP Hunter fluorescence, primary and confirmatory, confirmation (AID 624330); assay type: functional
T3 sequence (Q9H0H5 whole entry): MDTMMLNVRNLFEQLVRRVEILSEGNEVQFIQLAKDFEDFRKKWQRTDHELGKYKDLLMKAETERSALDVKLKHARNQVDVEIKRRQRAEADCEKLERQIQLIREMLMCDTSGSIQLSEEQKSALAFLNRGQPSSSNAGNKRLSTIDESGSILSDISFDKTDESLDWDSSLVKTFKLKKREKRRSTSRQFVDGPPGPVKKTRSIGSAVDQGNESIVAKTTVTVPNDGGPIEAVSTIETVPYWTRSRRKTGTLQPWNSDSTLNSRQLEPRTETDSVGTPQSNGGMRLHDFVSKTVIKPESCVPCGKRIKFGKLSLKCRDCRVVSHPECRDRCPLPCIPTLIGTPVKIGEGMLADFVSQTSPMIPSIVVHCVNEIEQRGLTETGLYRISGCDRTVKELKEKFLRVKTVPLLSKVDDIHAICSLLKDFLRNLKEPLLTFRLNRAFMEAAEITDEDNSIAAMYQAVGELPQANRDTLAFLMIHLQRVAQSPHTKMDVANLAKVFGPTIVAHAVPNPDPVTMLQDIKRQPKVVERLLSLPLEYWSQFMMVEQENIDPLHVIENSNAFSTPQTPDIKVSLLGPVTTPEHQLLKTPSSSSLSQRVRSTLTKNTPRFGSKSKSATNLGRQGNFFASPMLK

[4] = molecular target: FAD-linked sulfhydryl oxidase ALR (Homo sapiens, UniProt P55789); test: ALR-catalysed DTT oxidation blockers – biochemical, H2O2 detection, luminescence, cherry-pick, dose response (AID 493248)
Genome polyprotein = Genome polyprotein (dengue virus type 2, UniProt P29990); test: flavivirus cap methylation enzyme inhibition – biochemical, confirmation dose response, primary screen (AID 588689); assay type: functional
Cytochrome P450 2C9 = Cytochrome P450 2C9 (Homo sapiens, UniProt P11712)
Cytochrome P450 2C19 = Cytochrome P450 2C19 (Homo sapiens, UniProt P33261); test: Cytochrome panel assay with activity outcomes. Panel member name: p450-cyp2c19 Compounds with AC50 equal or less than 10 uM are considered active; assay type: functional
[5] = Luminescence Cell-Based Dose Retest to Confirm Inhibitors of Cancer Stem Cells. [Related pubchem assays (depositor defined):AID2717, AID2721]; assay type: functional; conditions: Homo sapiens
[6] = Trypanosoma cruzi growth suppression in host cells – NIH3T3 host cells, beta-gal luminescence, confirmation (AID 2044); assay type: functional, cell-based;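 also: intracellular parasites grown in NIH/3T3 mouse fibroblasts as host cells; luminescent beta-galactosidase reporter signal from transgenic T. cruzi replicating inside host cells; inhibitors lower the luminescence signal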
[7] = NIH3T3 cell viability loss – ATP luminescence, mouse fibroblasts, counter-screen, dose response (AID 2010); assay type: functional, cell-based;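 also: cells exposed to compound for about 90 hours before reading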
[8] = NIH-3T3 fibroblast cytotoxicity, dose response, cytotoxicity control, cell-based, fluorescence, Alamar Blue, secondary assay (AID 2327); assay type: functional;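 also: NIH-3T3 mouse fibroblasts cultured with fluconazole at 8 µg/mL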
[9] = fluconazole-exposed Candida albicans growth modulators – fluorescence, retest, confirmation (AID 2467); assay type: functional, cell-based
Cytochrome P450 1A2 = molecular target: T4, Cytochrome P450 1A2 (Homo sapiens, UniProt P05177);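 also: PubChem cytochrome P450 panel assay, CYP1A2 panel member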
T4 sequence (P05177 whole entry): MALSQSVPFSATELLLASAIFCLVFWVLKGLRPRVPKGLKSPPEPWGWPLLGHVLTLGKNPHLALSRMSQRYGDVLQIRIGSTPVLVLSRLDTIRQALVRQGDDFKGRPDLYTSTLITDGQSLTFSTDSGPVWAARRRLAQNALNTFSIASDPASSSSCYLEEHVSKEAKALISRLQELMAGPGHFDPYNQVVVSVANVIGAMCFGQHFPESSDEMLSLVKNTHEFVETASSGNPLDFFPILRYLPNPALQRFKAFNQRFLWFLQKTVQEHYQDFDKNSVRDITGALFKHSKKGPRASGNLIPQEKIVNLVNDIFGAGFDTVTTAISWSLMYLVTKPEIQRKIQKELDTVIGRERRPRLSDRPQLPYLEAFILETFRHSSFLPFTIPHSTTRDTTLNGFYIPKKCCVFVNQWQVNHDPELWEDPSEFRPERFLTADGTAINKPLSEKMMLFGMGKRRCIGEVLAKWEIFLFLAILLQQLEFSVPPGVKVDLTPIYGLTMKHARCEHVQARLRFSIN

Cytochrome P450 3A4 = Cytochrome P450 3A4 (Homo sapiens, UniProt P08684);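 also: CYP3A4 tested as one member of a cytochrome P450 panel screen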
[10] = molecular target: T5, Corticotropin-releasing factor receptor 2/Corticotropin-releasing factor-binding protein (Homo sapiens, UniProt P24387+Q13324); test: activators of CRF receptor 2 with binding protein – uHTS hits, confirmation (AID 602473); assay type: functional; conditions: read-out: EC50_Mean
T5 sequence (Q13324 whole entry): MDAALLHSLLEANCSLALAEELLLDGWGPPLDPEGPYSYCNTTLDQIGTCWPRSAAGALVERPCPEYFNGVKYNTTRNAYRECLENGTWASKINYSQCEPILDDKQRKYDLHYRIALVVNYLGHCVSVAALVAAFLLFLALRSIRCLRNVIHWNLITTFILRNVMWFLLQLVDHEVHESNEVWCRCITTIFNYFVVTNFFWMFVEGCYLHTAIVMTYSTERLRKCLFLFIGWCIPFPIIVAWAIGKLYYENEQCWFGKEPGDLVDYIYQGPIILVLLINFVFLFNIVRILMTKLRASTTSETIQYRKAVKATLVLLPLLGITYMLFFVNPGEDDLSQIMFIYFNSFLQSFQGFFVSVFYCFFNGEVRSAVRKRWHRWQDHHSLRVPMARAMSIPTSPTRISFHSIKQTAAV
T5 sequence (P24387 whole entry): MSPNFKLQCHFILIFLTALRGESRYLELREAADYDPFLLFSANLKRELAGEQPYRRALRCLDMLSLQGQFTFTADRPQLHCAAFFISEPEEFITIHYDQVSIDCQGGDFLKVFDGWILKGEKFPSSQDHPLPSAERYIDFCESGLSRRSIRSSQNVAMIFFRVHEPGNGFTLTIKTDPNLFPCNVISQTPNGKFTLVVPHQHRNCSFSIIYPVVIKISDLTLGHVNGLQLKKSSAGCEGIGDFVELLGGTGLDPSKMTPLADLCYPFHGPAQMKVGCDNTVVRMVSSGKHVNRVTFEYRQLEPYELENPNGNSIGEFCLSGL

Cytochrome P450 2C19, sequence (P33261 whole entry): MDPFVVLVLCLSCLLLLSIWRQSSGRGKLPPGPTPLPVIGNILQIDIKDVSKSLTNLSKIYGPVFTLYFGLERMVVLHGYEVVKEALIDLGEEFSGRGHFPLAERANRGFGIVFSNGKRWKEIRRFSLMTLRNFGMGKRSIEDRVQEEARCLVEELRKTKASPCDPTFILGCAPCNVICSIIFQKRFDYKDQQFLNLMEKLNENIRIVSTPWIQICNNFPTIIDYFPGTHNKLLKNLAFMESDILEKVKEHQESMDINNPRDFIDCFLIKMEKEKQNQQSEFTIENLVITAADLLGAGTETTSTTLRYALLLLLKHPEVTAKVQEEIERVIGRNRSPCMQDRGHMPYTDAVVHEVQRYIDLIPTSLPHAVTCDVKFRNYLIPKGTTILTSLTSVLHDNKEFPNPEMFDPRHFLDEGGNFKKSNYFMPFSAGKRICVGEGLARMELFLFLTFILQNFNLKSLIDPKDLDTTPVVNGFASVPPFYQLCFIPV
FAD-linked sulfhydryl oxidase ALR, sequence (P55789 whole entry): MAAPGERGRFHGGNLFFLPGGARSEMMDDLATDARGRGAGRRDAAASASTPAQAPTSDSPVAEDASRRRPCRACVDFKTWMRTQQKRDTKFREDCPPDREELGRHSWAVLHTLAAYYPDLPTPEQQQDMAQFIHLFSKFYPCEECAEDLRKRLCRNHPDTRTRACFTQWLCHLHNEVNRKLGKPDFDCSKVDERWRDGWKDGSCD
T1 sequence (P11940 whole entry, the tested form may be a part): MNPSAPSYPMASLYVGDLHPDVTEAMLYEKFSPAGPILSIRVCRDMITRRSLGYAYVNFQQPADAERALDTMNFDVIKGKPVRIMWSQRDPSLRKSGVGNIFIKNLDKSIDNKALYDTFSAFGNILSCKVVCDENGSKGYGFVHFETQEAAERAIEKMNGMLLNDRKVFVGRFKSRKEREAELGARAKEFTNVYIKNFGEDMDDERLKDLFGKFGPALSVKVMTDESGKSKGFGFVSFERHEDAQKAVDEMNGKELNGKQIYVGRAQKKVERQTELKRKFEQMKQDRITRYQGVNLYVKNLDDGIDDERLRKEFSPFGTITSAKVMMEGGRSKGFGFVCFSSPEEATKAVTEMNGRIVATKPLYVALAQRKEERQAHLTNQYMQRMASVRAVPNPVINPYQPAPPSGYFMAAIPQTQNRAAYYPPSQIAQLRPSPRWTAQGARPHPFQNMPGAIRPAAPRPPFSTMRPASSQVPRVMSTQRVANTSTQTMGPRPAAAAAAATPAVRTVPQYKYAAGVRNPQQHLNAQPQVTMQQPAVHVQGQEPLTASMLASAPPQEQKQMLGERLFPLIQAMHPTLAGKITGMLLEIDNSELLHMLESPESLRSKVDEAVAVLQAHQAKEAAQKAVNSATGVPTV
Genome polyprotein, sequence (P29990 2492-3391 limits assumed): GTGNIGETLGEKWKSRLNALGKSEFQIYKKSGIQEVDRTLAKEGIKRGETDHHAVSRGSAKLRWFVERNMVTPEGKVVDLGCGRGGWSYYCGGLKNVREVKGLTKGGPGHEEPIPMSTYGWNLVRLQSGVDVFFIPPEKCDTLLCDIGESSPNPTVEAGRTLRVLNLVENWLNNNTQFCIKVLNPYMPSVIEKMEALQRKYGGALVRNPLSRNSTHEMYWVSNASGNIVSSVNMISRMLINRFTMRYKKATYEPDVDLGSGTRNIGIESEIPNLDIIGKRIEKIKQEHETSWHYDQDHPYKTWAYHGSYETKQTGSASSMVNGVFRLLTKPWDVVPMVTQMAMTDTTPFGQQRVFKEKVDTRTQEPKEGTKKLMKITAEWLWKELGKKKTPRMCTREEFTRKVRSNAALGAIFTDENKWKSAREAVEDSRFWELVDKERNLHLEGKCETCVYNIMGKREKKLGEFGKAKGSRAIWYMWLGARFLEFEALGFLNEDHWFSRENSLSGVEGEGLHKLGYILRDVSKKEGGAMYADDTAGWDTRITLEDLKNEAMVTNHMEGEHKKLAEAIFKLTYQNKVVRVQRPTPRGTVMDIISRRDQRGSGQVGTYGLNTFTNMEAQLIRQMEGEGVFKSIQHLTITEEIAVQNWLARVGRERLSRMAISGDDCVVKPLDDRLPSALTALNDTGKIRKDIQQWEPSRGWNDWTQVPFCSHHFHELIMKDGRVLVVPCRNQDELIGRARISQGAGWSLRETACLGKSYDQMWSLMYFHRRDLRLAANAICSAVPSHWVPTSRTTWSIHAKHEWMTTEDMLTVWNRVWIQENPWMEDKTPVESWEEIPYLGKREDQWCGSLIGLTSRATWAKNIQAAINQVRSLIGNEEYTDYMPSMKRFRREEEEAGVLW
Cytochrome P450 2C9, sequence (P11712 whole entry): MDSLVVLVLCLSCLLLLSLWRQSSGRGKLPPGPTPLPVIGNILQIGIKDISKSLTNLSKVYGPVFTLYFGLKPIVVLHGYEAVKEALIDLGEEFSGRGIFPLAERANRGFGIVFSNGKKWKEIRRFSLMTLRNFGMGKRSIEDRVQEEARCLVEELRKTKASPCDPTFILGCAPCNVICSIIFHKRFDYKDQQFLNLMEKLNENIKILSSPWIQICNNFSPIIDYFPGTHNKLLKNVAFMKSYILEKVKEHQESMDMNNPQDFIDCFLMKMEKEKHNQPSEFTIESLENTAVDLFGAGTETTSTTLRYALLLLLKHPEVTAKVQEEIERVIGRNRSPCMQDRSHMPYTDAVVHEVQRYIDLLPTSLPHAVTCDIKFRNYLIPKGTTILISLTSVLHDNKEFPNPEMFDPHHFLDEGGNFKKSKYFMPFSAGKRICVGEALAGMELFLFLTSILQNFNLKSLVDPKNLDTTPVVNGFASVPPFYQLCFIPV
Cytochrome P450 3A4, sequence (P08684 whole entry): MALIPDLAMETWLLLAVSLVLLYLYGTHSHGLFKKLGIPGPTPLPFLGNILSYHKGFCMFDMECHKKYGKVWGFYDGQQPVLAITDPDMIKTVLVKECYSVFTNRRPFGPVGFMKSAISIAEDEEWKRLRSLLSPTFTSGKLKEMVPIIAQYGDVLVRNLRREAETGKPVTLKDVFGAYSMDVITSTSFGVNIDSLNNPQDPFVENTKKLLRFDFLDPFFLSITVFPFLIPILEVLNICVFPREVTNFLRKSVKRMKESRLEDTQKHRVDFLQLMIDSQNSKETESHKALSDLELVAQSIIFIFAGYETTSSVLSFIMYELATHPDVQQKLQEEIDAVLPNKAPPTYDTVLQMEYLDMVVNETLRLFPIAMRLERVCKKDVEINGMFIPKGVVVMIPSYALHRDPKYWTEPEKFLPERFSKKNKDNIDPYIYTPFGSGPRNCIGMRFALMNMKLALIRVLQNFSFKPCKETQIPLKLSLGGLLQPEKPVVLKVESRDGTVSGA

IC50 [3]: 139 µM (active)
AC50 [4]: 0.226 µM (active)
SMILES: COc1ccc(NC2CCCN(C(=O)c3csc(C(C)C)n3)C2)cc1 (configuration not stated)

IC50 (Genome polyprotein): > 100 µM (active)
SMILES: C/C(=N/Nc1ccc(C(=O)O)cc1)c1ccc(O)c(O)c1O

IC50 (Protein skinhead-1): > 100 µM (inactive)
SMILES: O=C(Nc1cccc(Oc2ccccc2)c1)C1Cc2c(-c3ccc4c(c3)OCO4)ccnc2O1 (configuration not stated)

AC50 [4]: 27.7 µM (active)
SMILES: CC(C)c1ccc(NC2CCCN(C(=O)C3=NN(C)C(=O)CC3)C2)cc1 (configuration not stated)

AC50 (Cytochrome P450 1A2): 15.8 µM (inconclusive)
AC50 (Cytochrome P450 2C19; read-out: AC50): 25.1 µM (inconclusive)
SMILES: COC(=O)N1CCC2(CCCN(C(c3ccccc3)c3ccccc3)C2)CC1

AC50 [4]: 1.41 µM (active)
SMILES: CCNc1ccc(C(=O)O)cc1N

IC50 [1]: > 66 µM (inactive)
IC50 [2]: > 66 µM (inactive)
SMILES: CCOC(=O)c1c(NC(=O)c2ccccc2)sc2c1CCc1ccccc1-2

AC50 (Cytochrome P450 3A4): 25.1 µM (inconclusive)
AC50 (Cytochrome P450 2C19; read-out: AC50): 39.8 µM (inconclusive)
SMILES: NC(=O)c1ccc(N2CCCCC2)c(N2C(=O)C3CC=CCC3C2=O)c1 (configuration not stated)

IC50 [1]: 31.2 µM (inactive)
IC50 [2]: > 66 µM (inactive)
SMILES: O=C(CSC1=Nc2ccccc2C2=NC(CC(=O)NC3CCCCC3)C(=O)N12)NCc1ccco1 (configuration not stated)

Continued, compound first:

SMILES: Cc1cc2cc(CN=C(S)Nc3ccc(OC(F)F)cc3)ccc2n1C
IC50 [1]: > 66 µM (inactive)
IC50 (Protein skinhead-1): > 100 µM (inactive)
IC50 [2]: > 66 µM (inactive)

SMILES: Cc1nc2cc(NC(=O)CSc3nc4c(C)cccc4cc3C#N)ccc2s1
AC50 (Cytochrome P450 2C9): 3.55 µM (inconclusive)
AC50 (Cytochrome P450 2C19; read-out: AC50): 0.251 µM (inconclusive)

SMILES: CCOc1cc(N2CCOCC2)c(OCC)cc1NC(=O)CN1CCC(Cc2ccccc2)CC1
AC50 [5]: 2.28 µM (active)
EC50 [6]: 1.36 µM (active)
EC50 [7]: > 60 µM (not active)

SMILES: Cc1cccc(NC(=O)CSC(N)=O)c1C
EC50 [8]: > 150 µM (inactive)
IC50 [1]: > 66 µM (inactive)
IC50 [2]: > 66 µM (inactive)
EC50 [9]: > 38 µM (not active)

SMILES: CN(C)Cc1ccc(C(C)(C)C)cc1-c1cc(C(C)(C)C)ccc1CN(C)C
AC50 (Cytochrome P450 2C19): inconclusive

SMILES: COc1ccccc1CNC(=O)CSC1=NCCS1
IC50 [1]: > 66 µM (inactive)
IC50 [2]: > 66 µM (inactive)

SMILES: O=c1[nH]c2cc(Cl)c(Br)cc2o1 [BROMCHLORENONE]
IC50 (Protein skinhead-1): > 100 µM (inactive)

SMILES: CC(=O)Oc1oc(-c2ccccc2)nc1/C=N/c1ccccc1
EC50 [10]: 22.3 µM (active)
IC50 (Genome polyprotein): 86.3 µM (active)
